Measurements taken from BigSolDB 2.1.

NC(N)=C([N+](=O)[O-])[N+](=O)[O-]
solubility (mole fraction)
Conditions | 293.15 K | 303.15 K | 313.15 K | 323.15 K | 333.15 K | 343.15 K | 353.15 K | 363.15 K
in DMF | 0.0918 | 0.102 | 0.11 | 0.119 | 0.129 | 0.137 | 0.148 | 0.162
in DMSO | 0.183 | 0.191 | 0.199 | 0.207 | 0.217 | 0.229 | 0.242 | 0.254
in NMP | 0.168 | 0.178 | 0.184 | 0.194 | 0.203 | 0.214 | 0.227 | 0.24
